Source: PMC6130578, “Isolation and identification of three new chromones from the leaves of Pimenta dioica with cytotoxic, oestrogenic and anti-oestrogenic effects” (Pharmaceutical Biology, 2018)
pIC50: −log10 of the molar value.

Legend:
full-length ERβ = molecular target: T1, full-length ERβ (Homo sapiens, UniProt Q92731); assay: Competitive radioligand oestrogen receptor binding assay (3H-estradiol); details: 0.5 nM 3H-estradiol; tested at 20–100 μg/mL
T1 construct: host or cells: Sf9 insect cells
T1 sequence (Q92731 whole entry): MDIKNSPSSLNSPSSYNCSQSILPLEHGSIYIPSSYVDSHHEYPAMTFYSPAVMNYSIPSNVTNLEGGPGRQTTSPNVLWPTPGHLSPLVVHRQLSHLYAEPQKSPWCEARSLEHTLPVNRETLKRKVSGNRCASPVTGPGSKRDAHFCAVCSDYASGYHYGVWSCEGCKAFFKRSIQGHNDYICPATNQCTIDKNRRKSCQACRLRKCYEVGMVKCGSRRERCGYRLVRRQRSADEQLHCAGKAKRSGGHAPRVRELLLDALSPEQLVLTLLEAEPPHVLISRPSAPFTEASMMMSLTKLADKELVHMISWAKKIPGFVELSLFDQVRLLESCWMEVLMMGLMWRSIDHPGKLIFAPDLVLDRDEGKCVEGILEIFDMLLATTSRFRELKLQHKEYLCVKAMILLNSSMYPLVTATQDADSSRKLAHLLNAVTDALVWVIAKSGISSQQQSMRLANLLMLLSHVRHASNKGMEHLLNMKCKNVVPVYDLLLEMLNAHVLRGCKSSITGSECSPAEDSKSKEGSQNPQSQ
Protocol: A competitive radioligand-binding assay using full-length ERβ was used in the bioassay-guided fractionation of the crude methanol extract. The assay was performed as previously described (Obourn et al. [1993]; Doyle et al. [2009]). Briefly, recombinant human oestrogen receptor from insect Sf9 cells (α or β) was incubated with the test sample (50 μg/mL) plus 0.5 nM 3H-estradiol at 4 °C overnight. At the completion of incubation, 100 μL of a 50% hydroxylapatite slurry (in […] Tris, pH 7.4, 1 mM EDTA, 1 mM EGTA) was added and allowed to bind the ER-ligand complex for 40 min. The hydroxylapatite was washed three times with 0.5 mL of 40 mM Tris, pH 7.4, 1 mM EDTA, 1 mM EGTA and 11 mM KCl. The hydroxylapatite pellets were suspended in 1 mL of ethanol and counted in 5 mL of scintillation fluid, and the receptor-bound 3H-estradiol was measured. […] The median inhibitory concentration of 1 was determined by testing at concentrations of 20–100 μg/mL. All tests were performed in triplicate, and the results were determined from three independent experiments.

[1] = tested on: oestrogen responsive SEAP reporter gene (ERE) in MCF-7 cells; assay: Oestrogen-responsive SEAP reporter gene assay in transfected MCF-7 cells; assay type: cell-based, human; details: for SEAP activity in combination with E2: 1 μM compound + 10 nM E2; for fold increase in SEAP expression / SEAP reporter gene expression/activity, compound alone: 1 μM; for fold increase in SEAP expression: compound alone; for SEAP reporter gene expression/activity, compound alone: vs. control
Protocol: In addition to the ERβ binding assay, oestrogenic activity was determined by an oestrogen-responsive reporter gene assay consisting of MCF-7 cells transfected with a construct containing a secreted alkaline phosphatase (SEAP) gene that is induced through an oestrogen response element (ERE). MCF-7 (HTB-22) human breast cancer cells (obtained from American Type Culture Collection, Manassas, VA) were maintained in Dulbecco’s modified Eagle’s medium containing 10% FBS and 100 U/mL penicillin and 100 μg/mL streptomycin in 75 cm^2 flasks. Forty-eight hours prior to transfection, the cells were maintained in phenol red free DMEM medium supplemented with 0.5% FCS, in a humidified atmosphere with 5% CO2 at 37 °C. For transfection, 0.5 × 10^5 cells were seeded per well of a 96-well plate in OPTI-MEM supplemented with dextran-charcoal stripped FBS. After 4 h, serum concentration was reduced to 1%. Prior to transfection, cells were washed with DMEM and incubated in phenol red-free OPTI-MEM without FBS as described by Nozawa et al. ([2005]).
The cells were transfected with the reporter vector pERE-TA-SEAP, coding for the SEAP gene (Clontech, Palo Alto, CA) (Cullen and Malim [1992]; Treeck et al. [2003]). MCF-7 cells were transfected using 0.5 μL Lipofectamine 2000 (Invitrogen, Carlsbad, CA), and 0.1 μg plasmid DNA including the SEAP vector per well of a 96-well plate according to the manufacturer’s instructions. As a negative control, cells were transfected with reporter vector pTA-SEAP2 using Lipofectamine 2000. After 12 h of transfection, the media were replaced with phenol-free Dulbecco’s modified Eagle’s medium containing 10% dextran-coated charcoal stripped FBS. Cells were treated with 1 μM 1–3 with and without 10 nM E2 or 1 μM ICI 182,780. Estradiol was used as the positive control and DMSO as the negative control. Cells were treated for 12 h, then the medium was harvested, centrifuged and 25 μL from each well was transferred to a new 96 well plate. The SEAP activity was measured using the Great EscAPe SEAP Chemiluminescence High-Throughput Detection Kit (Clontech, Palo Alto, CA) using a 96-well luminometer according to the manufacturer’s instructions. To assess novel mechanisms of action other than ER, we tested the extract and fractions in a HER2/neu tyrosine kinase assays (Barbacci et al. [2003]; HTScan HER2/ErbB2 kinase Assay Kit, Cell Signaling Tech., 96-well plates, high throughput), using the methods as described by the manufacturer.

MCF-7 cells [2] = assay: Cell viability assay (CellTiter-Glo 2.0), MCF-7; assay type: cell-based; details: Homo sapiens, MCF7; MCF-7, 72 h; read-out: IC50 (cell growth)
Protocol: (§1) MCF-7 and AGS cells were seeded at 2.5 × 10^4 cells in 100 µL/well while NCI-N87 was seeded at 5.0 × 10^4 cells in 100 µL/well in opaque-walled 96-well plate. Control wells containing medium (supplemented with 10% FBS and 1% penicillin/streptomycin) without cells to determine background luminescence were also prepared. The cells were left to attach overnight in the plate. Culture medium was aspirated and fresh medium added to the wells before reconstituted extracts of P. dioica (methanol extract, 50% methanol fraction) and isolated compounds (1–3, and quercitrin) at 100, 50, 20, 10 and 5 µg/mL were added to experimental wells. Drug controls (5-fluorouracil and doxorubicin) and vehicle control (0.02% DMSO) wells were also prepared simultaneously, and the plate was incubated in a humidified incubator at 37 °C in an atmosphere of 5% CO2 for 72 h. At the end of the incubation period, the plate and its contents were equilibrated to room temperature for approximately 30 min. A 100 µL volume of CellTiter-Glo 2.0 Reagent (Promega Corporation, Madison, WI) was added to each well. The contents were mixed for 2 min on an orbital shaker to induce cell lysis and the plate was incubated at room temperature for 10 min to stabilize the luminescent signal. Luminescence signal was read using the Synergy HT Plate reader (Biotek, Winooski, VT) and Gen5 1.11 software. The IC50 defined as the concentration that causes 50% inhibition of cell growth after exposure to extract for 72 h was calculated using log (inhibitor) vs. normalized response analysis with GraphPad Prism 7 (GraphPad Software, Inc., La Jolla, CA).

AGS cells = assay: Cell viability assay (CellTiter-Glo 2.0), AGS; assay type: cell-based; details: Homo sapiens, 72 h, read-out: IC50 (cell growth)
Protocol: as §1

NCI-N87 cells = assay: Cell viability assay (CellTiter-Glo 2.0), NCI-N87; assay type: cell-based; details: Homo sapiens, NCI-N87, 72 h; read-out: IC50 (cell growth)
Protocol: as §1

caspase 8 in MCF-7 cells = assay: Caspase-Glo 8 apoptosis assay in MCF-7 cells; assay type: cell-based, human; details: compound 2 at IC50 concentration (55 µg/mL), 2 h
Protocol: MCF-7 cells were seeded in triplicate at a density of 3.0 × 10^4 cells in 100 µL/well in opaque-walled 96-well plates. The cells were left to attach overnight in the plate. Compound 2 at 55 µg/mL was added to the test wells. Caspase-Glo® 8 Reagents (Promega Corporation, Madison, WI) were prepared according to manufacturer’s instruction and allowed to equilibrate to room temperature. The test plates containing treated cells as well as controls were removed from the incubator after 2 h of incubation and allowed to equilibrate to room temperature. A 100 μL volume of Caspase-Glo® 8 Reagent was added to each well of a 96-well plate containing 100 μL of cell culture medium (blank), non-treated cells (negative control) in culture medium, and treated cells in culture medium. The contents of wells were gently mixed using a plate shaker at 300–500 rpm for 30 s and incubated at room temperature for 1 h. The luminescence of each sample was read using the Synergy HT Plate reader (Biotek, Winooski, VT) and Gen5 1.11 software.

MCF-7 cells [3] = assay: ApoTox-Glo triplex assay (viability, cytotoxicity, caspase 3/7) in MCF-7 cells; assay type: cell-based, human; details: MCF-7, 55 µg/mL
Protocol: Ninety-six (96) well assay plates containing MCF-7 cells in medium at a density of 1.0 × 10^4 cells in 100 µL/well in triplicate were set up. […] Plates were incubated appropriately before addition of 20 μL of viability/cytotoxicity reagent containing both GF-AFC substrate and bis-AAF-R110 substrate to all wells and briefly mixed by orbital shaking (300–500 rpm for ∼30 s). Plates were incubated for 30 min at 37 °C and fluorescence was measured at 400ex/505em (viability) and 485ex/520em (cytotoxicity). A 100 μL volume of Caspase-Glo® 3/7 reagent was added to all wells, briefly mixed by orbital shaking (300–500 rpm for ∼30 s), and incubated for 30 min at room temperature. Luminescence was measured using the Synergy HT Plate reader (Biotek, Winooski, VT) and Gen 5 1.11 software to detect caspase activation.

[4] = tested on: Bcl-2 and Bax mRNA in MCF-7 cells; assay: qPCR for apoptotic gene expression in MCF-7 cells; assay type: cell-based, human; details: MCF-7, at the IC50, 24 h
Protocol: MCF-7 cells were seeded at a density of 1 × 10^6 cells per well in a six-well plate and incubated overnight for cell attachment. […] Vehicle-treated control cells served as the negative control. The concentration and quality of RNA were determined by measuring absorbance at 260 nm and 280 nm on SynergyHT Take 3 session (Biotek, Winooski, VT) and Gen5 1.11 software.
Total RNA was reverse transcribed and amplified using Power SYBR Green RNA-to-CT 1-step kit (Applied Biosystems, Foster City, CA) as described by manufacturer using a Step-One Plus Real Time PCR System (Applied Biosystem, Foster City, CA). Briefly, each reaction was performed in triplicate in a 10 μL volume containing Power SYBR Green RT-PCR Mix (2×), 200 nM of each primers, RT Enzyme Mix (125×) and 100 ng RNA. The cycling conditions were as follows: 48 °C for 30 min, 95 °C for 10 min, followed by 50 cycles of 95 °C for 15 s and 60 °C for 1 min. PCR reaction specificity was confirmed by melt curve analysis at 95 °C for 15 s, 60 °C for 15 s, 95 °C for 15 s. The quantitation of gene expression was performed using β-actin as an endogenous control and relative to the calibrator (control cells) using the ΔΔCt method. Melting curves for each primer set were performed prior to the use of the primers.

pIC50 (full-length ERβ)	IC50 (MCF-7 cells [2])	IC50 (AGS cells)	Compound	SEAP activity in combination with E2 [1]	SEAP expression in the presence of ICI 182,780 ([1]; 1 μM compound + 1 μM ICI 182,780)	fold increase in SEAP expression [1]	SEAP reporter gene expression/activity, compound alone [1]	IC50 (NCI-N87 cells)	caspase 8 activity (caspase 8 in MCF-7 cells)	apoptosis in MCF-7 cells (MCF-7 cells [3])	Bax mRNA expression [4]	Bax/Bcl-2 ratio [4]	Bcl-2 mRNA expression [4]
3.41	> 100 µg/mL	> 100 µg/mL	Cc1c(O)c(C)c2oc(Oc3ccc(O)cc3)cc(=O)c2c1O [Compound 1, 2-(p-hydroxyphenoxy)-6,8-dimethyl-5,7-dihydroxychromone]	did not enhance SEAP activity	attenuated	6.2 fold	significantly enhanced	> 100 µg/mL	–	–	–	–	–
–	54.3 µg/mL	38.1 µg/mL	Cc1c(O)c(C)c2oc(-c3ccc(OC4OC(CO)C(O)C(O)C4O)cc3)cc(=O)c2c1O (stereo not shown) [Compound 2, syzalterin-4′-O-glucopyranose]	–	–	6.0 fold	significantly increased SEAP activity	51.2 µg/mL	weakly enhanced	induced apoptosis	little effects	~3.5	decreased
–	1.37 µg/mL	18.6 µg/mL	O=c1[nH]cc(F)c(=O)[nH]1 [Compound 5FU, 5-fluorouracil, reference compound]	–	–	–	–	0.097 µg/mL	–	–	–	–	–
–	–	0.079 µg/mL	COc1cccc2c1C(=O)c1c(O)c3c(c(O)c1C2=O)C[C@@](O)(C(=O)CO)C[C@@H]3O[C@H]1C[C@H](N)[C@H](O)[C@H](C)O1 [Doxo, doxorubicin, reference compound]	–	–	–	–	0.048 µg/mL	–	–	–	–	–

Compound	pIC50 (full-length ERβ)	IC50 (MCF-7 cells [2])	IC50 (AGS cells)	SEAP activity in combination with E2 [1]	SEAP expression in the presence of ICI 182,780 ([1]; 1 μM compound + 1 μM ICI 182,780)	fold increase in SEAP expression [1]	SEAP reporter gene expression/activity, compound alone [1]	IC50 (NCI-N87 cells)	caspase 8 activity (caspase 8 in MCF-7 cells)	apoptosis in MCF-7 cells (MCF-7 cells [3])	Bax mRNA expression [4]	Bax/Bcl-2 ratio [4]	Bcl-2 mRNA expression [4]
C[C@@H]1O[C@@H](Oc2c(-c3ccc(O)c(O)c3)oc3cc(O)cc(O)c3c2=O)[C@H](O)[C@H](O)[C@H]1O [Quercitrin]	–	> 100 µg/mL	> 100 µg/mL	some significant anti-oestrogenic effects	–	–	neither quercitrin nor 3 alone significantly enhanced SEAP activity	> 100 µg/mL	–	–	–	–	–
